From US8637252B2, “Methods and compositions for determining altered susceptibility of HIV-1 to anti-HIV drugs” (Monogram Biosciences, Inc., priority 2011, dated 2014)
Where “and” joins values, the source holds several entries; their conditions need not be identical. Equal entries are not always repeated.

How the values were obtained:
[1] = test system: HIV-1 (patient-derived POL segment); experiment: phenotypic drug resistance test, resistance test vectors with patient-derived POL segment (entire pol gene), luciferase, 293 cells; format: cell-based
Excerpt: (§1) Patient-derived segment(s) corresponding to the entire pol gene, encoding HIV protease, reverse transcriptase (including RNAse H), and integrase (hereinafter “POL”), the portion of pol encoding amino acids 1-305 of reverse transcriptase (hereinafter “PR-RT”), the portion of pol encoding amino acids 319-440 of reverse transcriptase (including RNAse H), and integrase (hereinafter “RHIN”), were amplified by the reverse transcription-polymerase chain reaction method (RT-PCR) using viral RNA isolated from viral particles present in the plasma or serum of HIV-infected individuals as described below. The portion of pol encoding protease, amino acids 1-531 of reverse transcriptase (including RNase H) (hereinafter “PRRT-RH”), or the portion of pol encoding protease, reverse transcriptase (including RNAse H) and integrase (hereinafter “PRRT-RHIN”), were assembled from amplicons described above by standard recombinant DNA techniques involving a KpnI restriction site at amino acid 400 or a Pin A1 site at amino acid 315.
(§2) Virus was pelleted by centrifugation at 20,400×g for 60 min from plasma (typically, 1 ml) prepared from blood samples collected in evacuated tubes containing either EDTA, acid-citrate dextrose, or heparin as an anticoagulant. Virus particles were disrupted by resuspending the pellets in 200 [1.1 of lysis buffer (4 M guanidine thiocyanate, 0.1 M Tris HCl (pH 8.0), 0.5% sodium lauryl sarcosine, 1% dithiothreitol). RNA was extracted from viral lysates by using oligo(dT) linked to magnetic beads (Dynal, Oslo, Norway). Reverse transcription was performed with Superscript III (Invitrogen) at 50 degrees for 1 hour using primer 1.
(§3) From the resultant cDNA either POL or RHIN sequences were amplified using the Advantage High Fidelity PCR kit (BD Biosciences; Clontech). POL amplification products are made using forward Primer 3 containing an Apal site and reverse Primer 4 containing a Xho 1 site. RHIN amplification products are made using forward Primer 2 containing a P1NA1 site and reverse Primer 4 containing a Xho 1 site.
(§4) A retroviral vector designed to measure antiretroviral drug susceptibility was constructed by using an infectious molecular clone of HIV-1. The vector, referred to herein as an indicator gene viral vector (IGVV), is replication defective and contains a luciferase expression cassette inserted within a deleted region of the envelope (env) gene. The IGVV is described in U.S. Pat. No. 5,837,464 (International Publication Number WO 97/27319) which is hereby incorporated by reference in its entirety. This retroviral vector was further modified to allow insertion of either the entire pol gene (POL) or the portion of poi encoding amino acids 319-440 of reverse transcriptase, the RNase H portion of reverse transcriptase, and integrase (REIN) by engineering an Xho l restriction enzyme recognition site into vif. Prior to doing this, an Xho 1 site in nef was deleted. Resistance Test vectors (RTVs) were constructed by incorporating amplified POL or RHIN into the IGVV by using Apal and Xhol or PinAI and Xho 1 restriction sites respectively. RTVs were prepared as libraries (pools) in order to capture and preserve the pol or RHIN sequence heterogeneity of the virus in the patient. POL amplification products were digested with Apal and Xhol, purified by agarose gel electrophoresis, and ligated to ApaI- and Xhol-digested IGVV DNA. RHIN amplification products were digested with PinAI and Xho/, purified by agarose gel electrophoresis, and ligated to PinAI and Xhol-digested IGVV DNA. Ligation reactions were used to transform competent Escherichia coli (Invitrogen, Carlsbad, Calif.). An aliquot of each transformation was plated onto agar, and colony counts were used to estimate the number of patient-derived segments represented in each RTV library. RTV libraries that comprised less than 50 members are not considered representative of the patient virus. […]

[2] = test system: HIV-1 (patient-derived RHIN segment); experiment: phenotypic drug resistance test, resistance test vectors with patient-derived RHIN segment, luciferase, 293 cells; format: cell-based
Excerpt: as §1, §2, §3, §4

[3] = Sample 47 (K103K/N, V106V/A, Y181Y/C, G190G/A)
[4] = Sample 58 (K103N, Y181Y/C, G190G/A)
[5] = Sample 62 (K103H, P225P/H, T369T/I)
[6] = Sample 90 (K103K/N, Y181C, G190A)

## Cc1ccnc2c1NC(=O)c1cccnc1N2C1CC1 [NVP, nevirapine]
[1]; Sample 31 (K103N)
  fold change in IC50, pol: 400.0 fold
  pol/PR-RT ratio: 4.5
[1]; Sample 33 (K103S)
  fold change in IC50, pol: 25.1 fold
  pol/PR-RT ratio: 1.1
[1]; Sample 34
  fold change in IC50, pol: 0.3 fold
  pol/PR-RT ratio: 1.3
[1]; Sample 35 (K103H)
  fold change in IC50, pol: 28.3 fold
  pol/PR-RT ratio: 1.1
[1]; Sample 36 (K103K/W)
  fold change in IC50, pol: 2.4 fold
  pol/PR-RT ratio: 0.2
[1]; Sample 38 (K103N)
  fold change in IC50, pol: 81.0 fold
  pol/PR-RT ratio: 0.7
[1]; Sample 39 (T369A)
  fold change in IC50, pol: 2.8 fold
  pol/PR-RT ratio: 9.0
[1]; Sample 42 (G190G/A)
  fold change in IC50, pol: 7.1 fold
  pol/PR-RT ratio: 0.2
[1]; Sample 45
  fold change in IC50, pol: 0.3 fold
  pol/PR-RT ratio: 1.1
[1]; [3]
  fold change in IC50, pol: 400.0 fold
  pol/PR-RT ratio: 1.0
[1]; Sample 50 (K103N)
  fold change in IC50, pol: 72.7 fold
  pol/PR-RT ratio: 0.5
[1]; Sample 51
  fold change in IC50, pol: 0.7 fold
  pol/PR-RT ratio: 1.6
[1]; Sample 52
  fold change in IC50, pol: 1.8 fold
  pol/PR-RT ratio: 0.9
[1]; [4]
  fold change in IC50, pol: 400.0 fold
  pol/PR-RT ratio: 1.0
[1]; [5]
  fold change in IC50, pol: 400.0 fold and 400.00 fold
  pol/PR-RT ratio: 6.3
[1]; Sample 64 (T369T/A)
  fold change in IC50, pol: 0.3 fold
  pol/PR-RT ratio: 0.3
[1]; Sample 69
  fold change in IC50, pol: 1.6 fold
  pol/PR-RT ratio: 1.6
[1]; Sample 72
  fold change in IC50, pol: 1.1 fold
  pol/PR-RT ratio: 1.6
[1]; Sample 80 (K103K/N, Y181Y/C)
  fold change in IC50, pol: 17.0 fold
  pol/PR-RT ratio: 0.4
[1]; Sample 81 (K103N, P225H)
  fold change in IC50, pol: 114.0 fold
  pol/PR-RT ratio: 1.2
[1]; Sample 84
  fold change in IC50, pol: 0.9 fold
  pol/PR-RT ratio: 1.2
[1]; Sample 85
  fold change in IC50, pol: 400.0 fold
  pol/PR-RT ratio: 3.0
[1]; Sample 87
  fold change in IC50, pol: 1.4 fold
  pol/PR-RT ratio: 1.7
[1]; Sample 89 (L1001, K103N)
  fold change in IC50, pol: 400.0 fold
  pol/PR-RT ratio: 10.8
[1]; [6]
  fold change in IC50, pol: 400.0 fold
  pol/PR-RT ratio: 1.0
[1]; Sample 92
  fold change in IC50, pol: 1.1 fold
  pol/PR-RT ratio: 1.0
[1]; Sample 93
  fold change in IC50, pol: 1.4 fold
  pol/PR-RT ratio: 0.9
[2]; Pool of patient sample 62, RT codons mutated: N348 (0.5), T369 (0.5), T377, T403
  FC: 7.61
[2]; Sample 31 (K103N)
  fold change in IC50, RHIN: 2.1 fold
[2]; Sample 33 (K103S)
  fold change in IC50, RHIN: 1.0 fold
[2]; Sample 34
  fold change in IC50, RHIN: 0.7 fold
[2]; Sample 35 (K103H)
  fold change in IC50, RHIN: 1.2 fold
[2]; Sample 36 (K103K/W)
  fold change in IC50, RHIN: 1.0 fold
[2]; Sample 38 (K103N)
  fold change in IC50, RHIN: 0.5 fold
[2]; Sample 39 (T369A)
  fold change in IC50, RHIN: 2.6 fold
[2]; Sample 42 (G190G/A)
  fold change in IC50, RHIN: 0.6 fold
[2]; Sample 45
  fold change in IC50, RHIN: 1.3 fold
[2]; [3]
  fold change in IC50, RHIN: 1.0 fold
[2]; Sample 50 (K103N)
  fold change in IC50, RHIN: 0.6 fold
[2]; Sample 51
  fold change in IC50, RHIN: 0.6 fold
[2]; Sample 52
  fold change in IC50, RHIN: 0.9 fold
[2]; [4]
  fold change in IC50, RHIN: 1.7 fold
[2]; [5]
  fold change in IC50, RHIN: 7.6 fold and 7.61 fold
[2]; Sample 64 (T369T/A)
  fold change in IC50, RHIN: 0.4 fold
[2]; Sample 69
  fold change in IC50, RHIN: 0.9 fold
[2]; Sample 72
  fold change in IC50, RHIN: 1.6 fold
[2]; Sample 80 (K103K/N, Y181Y/C)
  fold change in IC50, RHIN: 0.72 fold
[2]; Sample 81 (K103N, P225H)
  fold change in IC50, RHIN: 1.4 fold
[2]; Sample 84
  fold change in IC50, RHIN: 0.7 fold
[2]; Sample 85
  fold change in IC50, RHIN: 2.1 fold
[2]; Sample 87
  fold change in IC50, RHIN: 1.9 fold
[2]; Sample 89 (L1001, K103N)
  fold change in IC50, RHIN: 2.7 fold
[2]; [6]
  fold change in IC50, RHIN: 1.2 fold
[2]; Sample 92
  fold change in IC50, RHIN: 0.5 fold
[2]; Sample 93
  fold change in IC50, RHIN: 1.1 fold
[2]; clone c03a of patient sample 62, RT codons mutated: T377, T403
  FC: 1.64
[2]; clone c03b of patient sample 62, RT codons mutated: A355, T369, T377, T403
  FC: 5.51
[2]; clone c08 of patient sample 62, RT codons mutated: H315, T369, T377
  FC: 12.98
[2]; clone c10 of patient sample 62, RT codons mutated: N348, T377, T403
  FC: 28.07
[2]; clone c12 of patient sample 62, RT codons mutated: T369, T377, T403
  FC: 9.18
[2]; clone c14 of patient sample 62, RT codons mutated: Y342, T377, T403, R448
  FC: 6.48
[2]; clone c15 of patient sample 62, RT codons mutated: N348, Y354, T403, N418
  FC: 2.37
[2]; clone c16 of patient sample 62, RT codons mutated: T377, T403, D511 (0.5)
  FC: 2.19
[2]; clone c18 of patient sample 62, RT codons mutated: A371, T377, T403
  FC: 2.46
[2]; clone c20 of patient sample 62, RT codons mutated: T377, T403
  FC: 3.97
[2]; clone c21 of patient sample 62, RT codons mutated: T377, T403, K550
  FC: 5.16
[2]; clone c23 of patient sample 62, RT codons mutated: T369, T377, T403
  FC: 10.11
[2]; clone c24 of patient sample 62, RT codons mutated: T377, T403
  FC: 4.77
[2]; clone c26 of patient sample 62, RT codons mutated: T369, T377, T403
  FC: 12.00
[2]; clone c28 of patient sample 62, RT codons mutated: T377, I393, T403, R448
  FC: 0.54
